Test results as given in patent US8461328B2, “Tricyclic heterocyclic compounds, compositions and methods of use thereof” (Genentech, Inc., priority 2010, dated 2013).

Columns and labels:
Assay type in all cases: biochemical
JAK3 = biological target: T1, JAK3 (Homo sapiens, UniProt P52333); experiment: JAK3 inhibition (Table 4); conditions: read-out: JAK3 Ki
T1 construct: made in house; host or cells: SF9 insect cells (baculovirus)

TYK2 = biological target: T2, TYK2 (Homo sapiens, UniProt P29597); experiment: TYK2 inhibition (Table 4)
T2 construct: made in house; host or cells: SF9 insect cells (baculovirus)
T2 sequence (P29597 873-1187): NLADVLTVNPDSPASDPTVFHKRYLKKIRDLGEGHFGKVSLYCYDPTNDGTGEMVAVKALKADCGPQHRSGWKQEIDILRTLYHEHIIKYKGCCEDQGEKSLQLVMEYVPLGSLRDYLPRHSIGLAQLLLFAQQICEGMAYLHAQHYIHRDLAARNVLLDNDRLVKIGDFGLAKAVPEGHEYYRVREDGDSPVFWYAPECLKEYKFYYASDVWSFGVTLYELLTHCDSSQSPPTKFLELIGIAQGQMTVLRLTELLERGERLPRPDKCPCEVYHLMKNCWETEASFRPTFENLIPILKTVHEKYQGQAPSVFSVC

JAK2 = biological target: T3, JAK2 (Homo sapiens, UniProt O60674); experiment: JAK2 inhibition (Table 4); conditions: read-out: JAK2 Ki
T3 construct: made in house; host or cells: SF9 insect cells (baculovirus)
T3 sequence (O60674 812-1132): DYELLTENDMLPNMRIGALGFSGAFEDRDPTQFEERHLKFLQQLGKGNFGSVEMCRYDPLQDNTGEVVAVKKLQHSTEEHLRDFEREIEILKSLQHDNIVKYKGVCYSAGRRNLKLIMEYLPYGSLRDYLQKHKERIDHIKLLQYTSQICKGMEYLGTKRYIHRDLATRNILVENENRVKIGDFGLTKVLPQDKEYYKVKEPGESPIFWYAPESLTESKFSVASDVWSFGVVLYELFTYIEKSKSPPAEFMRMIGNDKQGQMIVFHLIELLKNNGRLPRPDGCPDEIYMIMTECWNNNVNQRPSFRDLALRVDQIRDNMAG

JAK1 = biological target: T4, JAK1 (Homo sapiens, UniProt P23458); experiment: JAK1 inhibition (Table 4); conditions: read-out: JAK1 Ki
T4 construct: made in house; host or cells: SF9 insect cells (baculovirus)
T4 sequence (P23458 852-1154): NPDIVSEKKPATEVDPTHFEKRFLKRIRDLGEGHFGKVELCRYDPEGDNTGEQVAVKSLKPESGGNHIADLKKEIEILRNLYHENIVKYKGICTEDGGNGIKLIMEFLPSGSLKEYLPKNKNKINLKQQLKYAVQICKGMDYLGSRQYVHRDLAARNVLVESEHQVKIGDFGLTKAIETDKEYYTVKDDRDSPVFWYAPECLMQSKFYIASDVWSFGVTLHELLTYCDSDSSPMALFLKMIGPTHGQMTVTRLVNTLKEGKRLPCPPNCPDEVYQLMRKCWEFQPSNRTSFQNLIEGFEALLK

T1 sequence (P52333 783-1124): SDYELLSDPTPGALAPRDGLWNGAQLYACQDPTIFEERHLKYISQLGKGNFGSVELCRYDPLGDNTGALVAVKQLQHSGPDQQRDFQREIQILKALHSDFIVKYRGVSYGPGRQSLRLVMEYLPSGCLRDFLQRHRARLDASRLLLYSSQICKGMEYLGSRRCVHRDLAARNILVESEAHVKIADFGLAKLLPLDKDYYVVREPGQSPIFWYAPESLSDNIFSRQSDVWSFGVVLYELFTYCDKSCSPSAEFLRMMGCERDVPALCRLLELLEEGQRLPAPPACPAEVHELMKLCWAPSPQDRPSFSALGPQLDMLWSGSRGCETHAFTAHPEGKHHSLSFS

| SMILES | Ki (JAK3) [nM] | Ki (TYK2) [nM] | Ki (JAK2) [nM] | Ki (JAK1) [nM] |
| --- | --- | --- | --- | --- |
| C[C@@H](O)c1nc2cnc3[nH]ccc3c2n1[C@H]1CC[C@H](N2CC[C@@H](C#N)C2)CC1 [Example 610, Trans (R)-1-{4-[2-((R)-1-hydroxy-ethyl)-6H-1,2,3,5,6-tetraaza-as-indacen-1-yl]-cyclohexyl}-pyrrolidine-3-carbonitrile] | 139 | 17.7 | 35.5 | 7.25 |
| C[C@@H](O)c1nc2cnc3[nH]ccc3c2n1[C@H]1CC[C@@H](N2CCC(F)(F)CC2)CC1 [Example 612, Cis (R)-1-{1-[4-(4,4-difluoro-piperidin-1-yl)-cyclohexyl]-1,6-dihydro-1,2,3,5,6-tetraaza-as-indacen-2-yl}-ethanol] | 509 | 224 | 455 | 52.9 |
| N#CC1CCN([C@H]2CC[C@H](n3c(CO)nc4cnc5[nH]ccc5c43)CC2)CC1 [Example 613, Trans 1-[4-(2-hydroxymethyl-6H-1,2,3,5,6-tetraaza-as-indacen-1-yl)-cyclohexyl]-piperidine-4-carbonitrile] | 318 | 14.5 | 15.1 | 2.58 |
| C[C@@H](O)c1nc2cnc3[nH]ccc3c2n1[C@H]1CC[C@H](NCC(F)(F)F)CC1 [Example 614, Trans (R)-1-{1-[4-(2,2,2-trifluoro-ethylamino)-cyclohexyl]-1,6-dihydro-1,2,3,5,6-tetraaza-as-indacen-2-yl}-ethanol] | 63.3 | 3.01 | 13.2 | 0.76 |
| C[C@@H](O)c1nc2cnc3[nH]ccc3c2n1[C@H]1CC[C@H](NCCC#N)CC1 [Example 615, Trans 3-{4-[2-((R)-1-hydroxy-ethyl)-6H-1,2,3,5,6-tetraaza-as-indacen-1-yl]-cyclohexylamino}-propionitrile] | 137 | 21.5 | 57.5 | 1.96 |
| C[C@@H](O)c1nc2cnc3[nH]ccc3c2n1[C@H]1CC[C@H](N(C)CCC#N)CC1 [Example 616, Trans 3-({4-[2-((R)-1-hydroxy-ethyl)-6H-1,2,3,5,6-tetraaza-as-indacen-1-yl]-cyclohexyl}-methyl-amino)-propionitrile] | 84.3 | 12.1 | 20 | 4.49 |
| C[C@@H](O)c1nc2cnc3[nH]ccc3c2n1[C@H]1CC[C@H](N(C)CC(F)(F)F)CC1 [Example 617, Trans (R)-1-(1-{4-[methyl-(2,2,2-trifluoro-ethyl)-amino]-cyclohexyl}-1,6-dihydro-1,2,3,5,6-tetraaza-as-indacen-2-yl)-ethanol] | 147 | 22.3 | 38.7 | 11.9 |
| Cc1nc2cnc3[nH]ccc3c2n1[C@@H]1CC[C@@H](NC(=O)OC(C)(C)C)C1 [Example 623, [(1R,3R)-3-(2-Methyl-6H-1,2,3,5,6-tetraaza-as-indacen-1-yl)-cyclopentyl]-carbamic acid tert-butyl ester] | 42.7 | 118 | 8.69 | 0.98 |
| Cc1nc2cnc3[nH]ccc3c2n1[C@@H]1CC[C@@H](NC(=O)CC(F)(F)F)C1 [Example 624, 3,3,3-Trifluoro-N-[(1R,3R)-3-(2-methyl-6H-1,2,3,5,6-tetraaza-as-indacen-1-yl)-cyclopentyl]-propionamide] | 13.9 | 63 | 10.2 | 2.23 |
| Cc1nc2cnc3[nH]ccc3c2n1[C@@H]1CC[C@@H](NC2COC2)C1 [Example 625, [(1R,3R)-3-(2-Methyl-6H-1,2,3,5,6-tetraaza-as-indacen-1-yl)-cyclopentyl]-oxetan-3-yl-amine] | 169 | 218 | 99.7 | 33.9 |
| OC[C@H]1CC[C@H](n2cnc3cnc4[nH]ccc4c32)CC1 [Example 631, trans [4-(6H-1,2,3,5,6-Tetraaza-as-indacen-1-yl)-cyclohexyl]-methanol] | 19.3 | 6.79 | 2.57 | 0.85 |
| Cc1nc2cnc3[nH]ccc3c2n1[C@H]1CC[C@H](CO)CC1 [Example 633, Trans[4-(2-methyl-6H-1,2,3,5,6-tetraaza-as-indacen-1-yl)-cyclohexyl]-methanol] | 12.1 | 6.08 | 3.31 | 1.19 |
| CO[C@H]1CC[C@H](n2c(CO)nc3cnc4[nH]ccc4c32)CC1 [Example 634, Trans[1-(4-Methoxy-cyclohexyl)-1,6-dihydro-1,2,3,5,6-tetraaza-as-indacen-2-yl]-methanol] | 165 | 4.4 | 21.9 | 3.8 |
| COC[C@H]1CC[C@H](n2c(CO)nc3cnc4[nH]ccc4c32)CC1 [Example 636, Trans[1-(4-methoxymethyl-cyclohexyl)-1,6-dihydro-1,2,3,5,6-tetraaza-as-indacen-2-yl]-methanol] | 28 | 6.5 | 15.6 | 3.82 |
